Assay results published in US20220348590A1, “CYCLOOXYGENASE-2 INHIBITORS AND USES THEREOF” (The Board Institute, Inc., priority 2019, published 2022).
Like-named read-outs stand apart in the source and are kept apart here.

Assays:
[1] = biological target: T1, human recombinant COX2 (hCOX2) (UniProt P35354); assay: LCMS-based COX2 enzymatic inhibition assay (PGE2 quantification); type: biochemical; design: COX2 2 minutes pge2/pge2d4 area ratio Avg; other: 2 minutes; readout pge2/pge2d4 area ratio; average; COX2 2 minutes pge2/pge2d4 area ratio Avg; LLE; average LLE; COX2 2 minutes pge2 area (counts) Avg; readout pge2 area (counts); other: 2 min; "ovine COX2 (oCOX2), human recombinant COX2 (hCOX2)"; conditions: 2 minutes; for COX2 2 minutes pge2/pge2d4 area ratio Avg. LLE / COX2 2 minutes pge2 area (counts) Avg. LLE: average LLE; for IC50: average
T1 sequence (P35354 1-604): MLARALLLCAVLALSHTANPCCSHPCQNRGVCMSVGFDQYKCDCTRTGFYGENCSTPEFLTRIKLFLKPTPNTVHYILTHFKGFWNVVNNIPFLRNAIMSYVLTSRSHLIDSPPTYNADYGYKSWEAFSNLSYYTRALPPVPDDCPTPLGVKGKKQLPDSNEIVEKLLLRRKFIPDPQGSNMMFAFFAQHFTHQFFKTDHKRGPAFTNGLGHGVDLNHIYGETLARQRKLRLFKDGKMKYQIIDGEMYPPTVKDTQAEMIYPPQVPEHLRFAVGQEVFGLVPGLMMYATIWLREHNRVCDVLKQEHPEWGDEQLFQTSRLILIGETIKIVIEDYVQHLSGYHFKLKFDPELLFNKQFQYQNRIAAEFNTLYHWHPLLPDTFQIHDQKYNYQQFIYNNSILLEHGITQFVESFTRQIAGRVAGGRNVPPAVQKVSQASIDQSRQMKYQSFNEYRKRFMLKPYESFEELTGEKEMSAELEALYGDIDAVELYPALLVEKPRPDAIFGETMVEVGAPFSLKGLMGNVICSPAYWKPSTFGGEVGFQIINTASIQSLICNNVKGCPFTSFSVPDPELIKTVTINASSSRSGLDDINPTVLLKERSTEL
In short: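 PGE2 formed from arachidonic acid (final 5 μM, 2 min) was measured by LC-MS-MS against DMSO controls. Enzyme (oCOX-1 0.1 μg or hCOX2 0.2 μg) with hematin/epinephrine cofactors at pH 8.0 was given 10 min at 37 °C with compound first. Twelve-point curves run three times gave IC50.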

[2] = biological target: T2, ovine COX-1 (oCOX-1) (Ovis aries, UniProt P05979); assay: LCMS-based COX-1 enzymatic inhibition assay (PGE2 quantification); type: biochemical
T2 construct: purchased Cayman Chemicals (Ann Arbor, Mich.)
T2 sequence (P05979 25-600): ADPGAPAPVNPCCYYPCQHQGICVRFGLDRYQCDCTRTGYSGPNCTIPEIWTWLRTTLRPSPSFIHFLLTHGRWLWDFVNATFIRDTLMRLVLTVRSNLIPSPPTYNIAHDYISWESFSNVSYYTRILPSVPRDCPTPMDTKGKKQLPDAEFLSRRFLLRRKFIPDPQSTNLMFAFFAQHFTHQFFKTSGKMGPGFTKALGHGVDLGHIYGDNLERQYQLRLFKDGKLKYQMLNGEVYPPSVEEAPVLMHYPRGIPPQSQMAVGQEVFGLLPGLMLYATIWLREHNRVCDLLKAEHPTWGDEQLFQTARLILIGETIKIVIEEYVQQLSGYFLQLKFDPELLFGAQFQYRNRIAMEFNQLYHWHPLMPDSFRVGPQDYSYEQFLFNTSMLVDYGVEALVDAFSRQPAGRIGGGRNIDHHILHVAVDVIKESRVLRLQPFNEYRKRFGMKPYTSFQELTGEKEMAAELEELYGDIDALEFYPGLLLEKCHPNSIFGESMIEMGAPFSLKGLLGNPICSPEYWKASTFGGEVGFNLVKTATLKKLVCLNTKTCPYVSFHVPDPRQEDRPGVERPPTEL
Method: We have adapted a previously reported cyclooxygenase enzymatic assay utilizing LCMS quantification of PGE2 as the product of COX-1 and COX2 catalyzed conversion of arachidonic acid to evaluate the binding properties of newly synthesized ligands [Cao, 2011]. These optimized and miniaturized (384-well plates) LCMS-based COX-1 and COX2 enzymatic assays enabled us to quickly evaluate newly synthesized ligands for COX2 binding affinity and selectivity vs COX-1. Using a shorter ligand-enzyme incubation time in the LCMS assay (2 minutes vs 10 minutes) also permitted us to prioritize ligands with faster binding kinetics. Considering the relatively slow on-rate kinetics of known coxibs, due to their 3-step binding mechanism [Marnett, 2009], we believe that optimizing this critical parameter will be key to the successful development of a COX2 PET tracer. Using these enzymatic assays, we have evaluated>200 newly synthesized ligands against COX2 and >20 ligands against COX-1. Another critical property necessary for a good PET radiotracer is to have low non-specific binding (NSB) to increase the free fraction and maximize the signal to noise ratio. This property can be evaluated using in-vitro protein binding assays, and we have now evaluated>50 newly synthesized ligands in mouse, rat and human plasma protein binding (PPB) assays as well as >15 ligands in a mouse brain protein binding (BPB) assay.
Ovine COX-1 (oCOX-1), ovine COX2 (oCOX2), human recombinant COX2 (hCOX2), arachidonic acid, PGE2, d4-PGD2, and […] (labeled with deuterium atoms at positions 3 and 4) were purchased from Cayman Chemicals (Ann Arbor, Mich.). The cofactors (−)epinephrine and hematin, and the COX inhibitors indomethacin, resveratrol and diclofenac were purchased from Sigma-Aldrich (St. Louis, Mo.). Celecoxib was purchased from 3B PharmaChem International (Wuhan, China). All organic solvents were HPLC grade or better and were purchased from Thermo Fisher (Hanover Park, Ill.). Formic acid was purchased from EMD Chemicals (San Diego, Calif.). Purified water was prepared by using a Millipore Milli-Q purification system (Millipore, Billerica, Mass.). All other chemicals and solvents were ACS reagent grade, unless stated otherwise.
In an Eppendorf tube, 146 μL of 100 mM Tris.HCl (pH 8.0) buffer, 2 μL of 100 μM hematin (co-factor) and 10 μL of 40 mM L-epinephrine (co-factor) were mixed at room temperature. Next, 20 μL of Tris.HCl (pH 8.0) buffer containing 0.2 μg COX2 or 0.1 μg COX-1 (approximately 1 unit of enzyme; 1 unit COX utilizes 1 nmol 02/mg/min at 37° C.) was added, and the solution was incubated at room temperature for 2 min. A 2 μL aliquot of the COX inhibitor in DMSO was added to the enzyme solution and preincubated at 37° C. for 10 min. Negative controls were identical except that 2 μL aliquots of DMSO without inhibitor were used instead.
Each COX reaction was initiated by adding 20 μL of arachidonic acid in Tris.HCl (pH 8.0) buffer to give a final concentration of 5 μM; and the reaction was terminated after 2 min by adding 20 μL of 2.0 M HCl. The surrogate standards d4-PGE2 and d4-PGD2 (10 μL aliquot of 50 ng/mL solution in methanol) were added to correct for errors or degradation during sample handling and for variation in injection volume or instrument response during LC-MS-MS. After 30 min, PGE2, PGD2 and their surrogate standards were extracted from each incubation mixture using 800 μL hexane/ethyl acetate (50:50, v/v). The organic phase was removed, evaporated to dryness, and reconstituted in 100 μL methanol/water (50:50, v/v) for analysis using LC-MS-MS.
The concentration of PGE2 in each sample was measured using LC-MS-MS, and the percent of COX inhibition by each test solution was determined by comparing the amount of PGE2 produced in the experiment with that produced in the negative control incubation. The formation of PGD2 was measured for quality control purposes, since the levels of PGD2 should be proportional to those of PGE2. […]

[3] = readout pge2/pge2d4 area ratio, read-out: COX2 2 minutes pge2/pge2d4 area ratio Avg. IC50
[4] = readout pge2 area (counts), read-out: COX2 2 minutes pge2 area (counts) Avg. IC50
[5] = 10 minutes, pge2/pge2d4 area ratio, head of this section not shown, inferred
[6] = 10 minutes, readout pge2/pge2d4 area ratio, average, read-out: COX1 10 minutes pge2/pge2d4 area ratio Avg. IC50
[7] = 10 minutes, pge2 area (counts), head of this section not shown, inferred
[8] = 10 minutes, pge2 area (counts), head of this section not shown, inferred, read-out: COX1 10 minutes pge2 area (counts) Avg. IC50
[9] = 10 minutes, readout pge2/pge2d4 area ratio, average LLE
[10] = 10 minutes, readout pge2 area (counts), average LLE

SMILES	COX2 2 minutes pge2/pge2d4 area ratio Avg. LLE ([1]; readout pge2/pge2d4 area ratio)	IC50 [1, 3] [nM]	COX2 2 minutes pge2 area (counts) Avg. LLE ([1]; readout pge2 area (counts))	IC50 [1, 4] [nM]	COX1 10 minutes pge2/pge2d4 area ratio Avg. LLE [2, 5]	IC50 [2, 6] [nM]	COX1 10 minutes pge2 area (counts) Avg. LLE [2, 7]	IC50 [2, 8] [nM]	IC50 ([2]; 10 minutes, readout pge2 area (counts), average, read-out: COX1 10 minutes pge2 area (counts) Avg. IC50) [nM]	IC50 [2] [nM]	COX1 10 minutes pge2/pge2d4 area ratio Avg. LLE [2, 9]	COX1 10 minutes pge2 area (counts) Avg. LLE [2, 10]
CS(=O)(=O)c1ccc(-c2ncc3ccn(Cc4cccs4)c3n2)cc1 [Compound 71]	3.165	41.2	3.167	41.6	0.04679	49300	–	–	–	–	–	–
C[S+]([O-])c1ccc(-c2cncc(NCc3cccs3)n2)cc1 (stereo not drawn) [Compound 129]	5.405	152	5.443	141	–	–	2.83	50200	–	–	–	–
COc1ncc(NCc2ccccc2)nc1-c1ccc(S(C)(=O)=O)cc1 [Compound 49]	5.235	22.2	5.228	21	–	–	–	–	–	52000	1.734	1.734
CS(=O)(=O)c1ccc(-n2ccc3cnc(NCc4cccs4)nc32)cc1 [Compound 80]	3.33	52	3.382	45.5	0.4422	37800	–	–	–	–	–	–
CS(=O)(=O)c1ccc(-c2ccc3ccn(Cc4cccs4)c3n2)cc1 [Compound 31]	3.218	15.2	3.116	18.5	–	2220	–	–	2710	–	1.013	0.929
CSc1ccc(NCc2cccs2)nc1-c1ccc(S(C)(=O)=O)cc1 [Compound 20]	3.9449	10.8	3.942	11.5	–	–	–	–	–	52000	0.214	0.214

Further lines, with some results ahead:

COX2 2 minutes pge2/pge2d4 area ratio Avg. LLE ([1]; readout pge2/pge2d4 area ratio)	IC50 [1, 3] [nM]	COX2 2 minutes pge2 area (counts) Avg. LLE ([1]; readout pge2 area (counts))	IC50 [1, 4] [nM]	COX1 10 minutes pge2/pge2d4 area ratio Avg. LLE [2, 5]	IC50 [2, 6] [nM]	COX1 10 minutes pge2 area (counts) Avg. LLE [2, 7]	IC50 [2, 8] [nM]	IC50 ([2]; 10 minutes, readout pge2 area (counts), average, read-out: COX1 10 minutes pge2 area (counts) Avg. IC50) [nM]	SMILES	IC50 [2] [nM]	COX1 10 minutes pge2/pge2d4 area ratio Avg. LLE [2, 9]	COX1 10 minutes pge2 area (counts) Avg. LLE [2, 10]
4.8	42.9	4.74	45.2	2.183	15000	2.127	17100	–	CS(=O)(=O)c1ccc(-c2cccc(NCc3ccc[nH]3)n2)cc1 [Compound 73]	–	–	–
2.94	41.4	2.995	34.2	0.2541	17600	0.02014	30200	–	CS(=O)(=O)c1ccc(-n2ccc3ccc(Nc4ccccc4)nc32)cc1 [Compound 72]	–	–	–
4.259	48.6	4.246	53.8	–	–	1.289	40900	–	Cn1cccc1CNc1cccc(-c2ccc(S(C)(=O)=O)cc2)n1 [Compound 77]	–	–	–
4.286	77.9	4.248	86.9	1.498	45900	–	–	–	CS(=O)(=O)c1ccc(-c2cccc(NCc3cncs3)n2)cc1 [Compound 99]	–	–	–
–	49.4	–	43.6	–	33500	–	–	–	CS(=O)(=O)c1ccc(-c2cncc(SCc3ccco3)n2)cc1 [Compound 78]	–	–	–
3.898	58	4.023	52.5	–	–	2.207	1790	–	CSc1ccc(-c2cncc(NCc3cccs3)n2)cc1 [Compound 84]	–	–	–
4.377	23.9	4.612	13.3	–	51900	–	–	–	CN(Cc1ccoc1)c1cccc(-c2ccc(S(C)(=O)=O)cc2)n1 [Compound 52]	–	1.0149	1.014
